Here are results for seven compounds from US6509343B1 (priority 1996, dated 2003).

Common to all, as to type: in vivo
In test [1] the test system is Phytophthora infestans. Nature of the test: whole plant or invertebrate.
Test [2] has as its system Pyrenophora teres. Nature of the test: Pyrenophora teres test (barley)/curative. The settings on record: 6.25 g/ha, curative, 7 days after inoculation. The method, then: Solvent: 25 parts by weight of N,N-dimethylacetamide
Emulsifier: 0.6 part by weight of alkylaryl polyglycol ether
To produce a suitable preparation of active compound, 1 part by weight of active compound or active compound combination is mixed with the stated amounts of solvent and emulsifier, and the concentrate is diluted with water to the desired concentration.
To test for curative activity, young plants are sprayed with a conidia suspension of Pyrenophora teres. The plants remain in an incubation cabin at 20° C. and 100% relative atmospheric humidity for 48 hours. The plants are subsequently sprayed with the preparation of active compound at the stated application rate.
The plants are placed in a greenhouse at a temperature of about 20° C. and a relative atmospheric humidity of about 80%.
Evaluation is carried out 7 days after the inoculation. 0% means an efficacy which corresponds to that of the control, whereas an efficacy of 100% means that no infection is observed.

The subject of test [3] is Fusarium nivale. Nature of the test: Fusarium nivale test (triticale)/seed treatment. The following applies: about 3 weeks after sowing. The method, then: The active compounds are applied as a dry seed dressing. This is prepared by extending the respective active compound with ground mineral to give a finely pulverulent mixture which ensures uniform distribution on the seed surface.
To dress the seed, the infected seed together with the seed dressing is shaken for 3 minutes in a sealed glass flask.
2×100 corns of triticale are sown at a depth of 1 cm in standard soil and cultivated in a greenhouse at a temperature of about 10° C. and a relative atmospheric humidity of about 95% in seed trays which receive a light regimen of 15 hours per day.
About 3 weeks after sowing, the plants are evaluated for symptoms of snow mould. 0% means an efficacy which corresponds to that of the untreated control, while an efficacy of 100% means that no disease is observed.

The mark [4] stands for this setting: Phytophthora infestans, in Solanum lycopersicum, 72 h, read-out: % efficacy.

As to `CCC1(C(=O)NC(C)c2ccc(Cl)cc2)C(C)C1(Cl)Cl` [(ω), N-(R)-[1-(4-chloro-phenyl)-ethyl]-2,2-dichloro-1ethyl-3t-methyl-1r-cyclopropane-carboxamide], the Emax at 5 g/ha in test [1] (setting [4]) stood at 3%.

With `CCNC(=O)NC(=O)/C(C#N)=N/OC` [Cymoxanil (M), cymoxanil], the “% efficacy” value in test [1] (in vivo) is 12%.

On to `CON=C(C1=NOCCO1)c1ccccc1Oc1ncnc(Oc2ccccc2Cl)c1F` [(I)], for which the Efficacy in % in test [2] was 0%.

In the case of `O=C(Nc1ccccc1)N(Cc1ccc(Cl)cc1)C1CCCC1` [(Pencycuron) P, pencycuron], the Efficacy in % in test [3] (25 mg/kg of seed) turned out to be 29%.

As to `CC(C)(C)C(O)C(Oc1ccc(Cl)cc1)n1cncn1` (stereo not shown) [(F), triadimenol], in test [2], the Efficacy in % is listed as 0%.

For the compound `COc1ccc(/C(=C\C(=O)N2CCOCC2)c2ccc(Cl)cc2)cc1OC` [Dimetomorph (L), dimetomorph], the Emax at 1 g/ha in test [1] (setting [4]) worked out at 0%.

In turn, `N#Cc1c[nH]cc1-c1cccc(Cl)c1Cl` [(Fenpiclonil) z, fenpiclonil] had an Efficacy in % in test [3] (75 mg/kg of seed) of 67%.
